# According to article PMC12320831, “Synthesis and Biological Evaluation of New Chalcogen Semicarbazone (S, Se) and Their Azole Derivatives against Chagas Disease” (Journal of Medicinal Chemistry, 2024):
# Values joined by “and” are separate entries in the source; they are usually repeats but may differ in a detail not shown here. Identical values can stand only once. Like-named read-outs stand apart in the source and are kept apart here.
# What was measured:
# [1] = Host cell cytotoxicity (C2C12 viability); format: cell-based, Mouse; conditions: mouse, C2C12 myoblast cells infected with trypomastigotes; for viability at 48 h, 10 µM: < 50% viability considered cytotoxic; for CC50 at 48 h: viability calculated at 10 μM
# How it was run: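 Mouse C2C12 myoblasts co-seeded with CAI/72 trypomastigotes (10:1 parasite:cell) on compound, 48 h at 37 °C, 5% CO2. DAPI-stained fixed cells imaged; parasites per host cell normalized to 40 μM BNZ and DMSO. EC50 and C2C12 viability from dose-response curves, three biological replicates in triplicate.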
# [2] = target: T1, recombinant Cz (cruzain) (Trypanosoma cruzi, UniProt P25779); assay: biochemical; conditions: for SICz: ratio between IC50 hCatL and IC50 Cz
# T1 construct: Cz was expressed and purified as described in da Silva et al; made in house
# How it was run: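 Cruzain (1 nM) was preincubated 10 min with compound in 0.1 M sodium acetate pH 5.5, 1 mM DTT, 0.01% Triton X-100, then 2.5 μM Z-FR-AMC (final) was added. Fluorescence (360/460 nm) was read for 10 min at 25 °C and normalized to DMSO.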
# [3] = tested on: T. cruzi CAI/72 strain; assay: Antiparasitic activity in C2C12 cells infected with T. cruzi CAI/72 (image-based assay); format: cell-based; conditions: Trypanosoma cruzi, read-out: Anti-Tc CAI/72 activity (%)
# [4] = tested on: T. cruzi CAI/72 strain; assay: as above; format: cell-based; conditions: Trypanosoma cruzi
# [5] = target: T2, Recombinant human cathepsin L (hCatL) (Homo sapiens, UniProt P07711); assay: Human cathepsin L inhibition assay (Z-FR-AMC substrate); format: biochemical
# T2 construct: purchased R&D Systems 952-CY
# Method: Compounds were screened at 10 μM. […] The experiment was performed for 30 min.
# All experiments were accomplished in a 384-well black microplate, using a Synergy HTX (Biotek) plate reader at 25 °C with absorption/emission wavelengths of 360/460 nm. All assays were performed in triplicate wells and DMSO was used as a vehicle control. Enzymatic activity was measured and normalized to DMSO controls, and the inhibitor E-64 (10 μM) was used as a positive control for all assays. All experiments were performed in triplicates, with at least two independent assays (n = 6 data points). IC50 values were determined through nonlinear regression. Obtained data were treated and analyzed using GraphPad Prism 9.0 (GraphPad Software, La Jolla, California).
# [6] = tested on: Cz isolated and purified from Tulahuen 2 strain epimastigotes; design: method as in Jasinski et al.; conditions: different assay conditions and enzyme origin; ref Jasinski et al.; cited from earlier work
# T1 sequence (P25779 123-337 limits assumed): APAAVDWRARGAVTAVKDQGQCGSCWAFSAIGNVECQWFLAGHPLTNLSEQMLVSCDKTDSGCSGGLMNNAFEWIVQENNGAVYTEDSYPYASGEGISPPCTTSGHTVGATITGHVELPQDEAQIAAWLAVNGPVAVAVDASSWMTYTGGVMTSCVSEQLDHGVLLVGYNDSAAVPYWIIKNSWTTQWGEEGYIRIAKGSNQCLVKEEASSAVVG
# T2 sequence (P07711 114-333): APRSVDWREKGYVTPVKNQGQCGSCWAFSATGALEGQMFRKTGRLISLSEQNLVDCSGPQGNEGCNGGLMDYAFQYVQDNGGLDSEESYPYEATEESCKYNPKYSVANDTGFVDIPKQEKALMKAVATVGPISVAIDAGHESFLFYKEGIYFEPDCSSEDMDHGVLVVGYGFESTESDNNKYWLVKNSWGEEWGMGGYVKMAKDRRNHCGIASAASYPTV
SMILES,"viability at 48 h, 10 µM [1]",CC50 at 48 h [1],SICz [2],inhibition at 3 µM [3],"inhibition at 10 µM ([4]; 10 µM, C2C12 infected cells, read-out: Anti-Tc CAI/72 activity (%))","EC50 ([4]; intracellular amastigotes in C2C12 cells, 48 h, mean of three experiments in triplicate (n = 9) ± SD, read-out: EC50 Tc CAI/72)",Cz inhibition (%) ([2]; 10 µM),"IC50 ([2]; each of two biological replicates in triplicate, read-out: IC50 Cz, single biological replicate (Figure 3))","IC50 ([2]; mean of two experiments in triplicate (n = 6) ± SEM, read-out: IC50 Cz)",SICz ([2]; listed as S 1i),"inhibition at 10 µM ([2]; read-out: Cz inhibition (%), 10 µM)",inhibition at 10 µM ([5]; 10 µM),"IC50 ([5]; each of two biological replicates in triplicate, read-out: IC50 hCatL, single biological replicate (Figure 4))","IC50 ([5]; mean of two experiments in triplicate (n = 6) ± SEM, read-out: IC50 hCatL)",IC50 [6]
"CN1CCN(C(=O)N[C@@H](Cc2ccccc2)C(=O)N[C@H](/C=C/S(=O)(=O)c2ccccc2)CCc2ccccc2)CC1 [Compound K777, reference compound]",> 100%,> 10 µM,0.13,61%,,,,,,,,,,,
"C/C(=N\NC(N)=S)c1cccc(Cl)c1 [Compound S1i, (E)-2-(1-(3-Chlorophenyl)ethylidene)hydrazine-1-carbothioamide]",> 100%,> 10 µM,35.76,,56.2%,~10 µM,100.00%,0.002 µM and 0.003 µM,0.0025 ± 0.00051 µM,36,> 85%,97.2%,0.058 µM and 0.12 µM,0.0894 ± 0.0314 µM,29.9 µM
